# Measured values published in patent US6582899B1, “Methods for identifying agents that cause a lethal phenotype, and agents thereof” (Deltagen Proteomics, Inc., priority 2000, dated 2003).
# Where no end group is shown, it is not given here.
# B1: BID: BID clone among the Sort VI clones tested in the HT29 floater assay (FIG. 10) (protein, UniProt P55957 1-195, looked up)
# BH3-interacting domain death …: MDCEVNNGSSLRDECITNLLVFGFLQSCSDNSFRRELDALGHELPVLAPQWEGYDELQTDGNRSSHSRLGRIEADSESQEDIIRNIARHLAQVGDSMDRSIPPGLVNGLALQLRNTSRSEEDRNRDLATALEQLLQAYPRDMEKEKTMLVLALLLAKKVASHTPSLLRDVFHTTVNFINQNLRTYVRSLARNGMD
# B2: 0195: cytotoxic agent isolated from clone 0195, SEQ ID NO: 22 (protein)
# chain: PEILSRSHLLLAGQTLIGVVAMVVEAEGEEDPWAVEAMEVVAVVVVAEEDFPVEVVAVEDSSELVTGSVLIPPVRI
# Columns and labels:
# [1] = system: HT29 colon cancer cells; assay: HT29 floater assay (negative selection); type: cell-based; conditions: for level of floaters relative to background: Sort VI clones, FIG. 10
# Procedure: HT29 cells were tested for feasibility in the floater cell assay as follows. Briefly, six flasks were inoculated with 6.25×10^5 HT29 cells/flask on Day 0. On Day 1, after the cells had been allowed to adhere to the solid support, two of these flasks were infected with retroviral supernatant containing the retroviral vector pVT324, which includes a selectable drug resistant marker (e.g. neomycin), and which constitutively expresses a green fluorescent protein. Of the remaining four flasks, two were mock infected (i.e. exposed to all of the same reagents/conditions as flasks 1 and 2, minus the retrovirus, see “Example 3C”) and two were left undisturbed. On Day 2, this procedure was repeated (i.e. a double infection). On Day 3 (and subsequently on Day 5) one flask was selected from each of the three groups and processed by separating and counting the floater and adherent cell populations. In the case of the floater cell population, the media was collected, centrifuged at 200×g for 10 minutes, and resuspended in PBS prior to removing a sample for counting on a hemocytometer. For the adherent cell population, cells were first removed from the flask by trypsinization, centrifuged, and then processed for analysis in a fashion analogous to the floater cells. To determine the inherent background level of floater cells present in the population, the ratio of the number of floater cells to the total number of cells (adherent cells+floater cells) was analyzed on both the Day 3 and Day 5 flasks that had not been manipulated. These numbers were compared with the analogous numbers taken from infected and mock-infected flasks to determine whether the retrovirus or transfection procedures altered background floater rates. To determine the susceptibility of HT29 cells to retroviral infection, the fraction of cells that expressed GFP in pVT324 infected flasks was calculated using flow cytometry.
# Twenty T175 flasks were seeded with 2.2×10^6 HT29 cells/flask in McCoy's 5A media (Gibco BRL) modified with 10% FBS. On Day 1, each flask was infected (4 μg/ml polybrene, 50% volume) with a retroviral supernatant containing a commercially obtained brain cDNA library (“Example Three” above). On Day 2 the media was changed. On Day 3 both the floater and adherent cell populations were collected (separately) from the twenty flasks. Approximately 652,500 floaters were isolated from a theoretical background of 4.2×10^7 adherents (1.5% floaters) and frozen down for future studies. […] Additional floater cells were then collected Day 5, where the collection and counting procedures were repeated and some 7.8×10^6 floaters and 7.6×10^8 adherents were counted (1.03% floaters). […] The floater populations of Days 3 and 5 were then combined and readied for a genomic DNA prep using a QIAamp kit (Qiagen) following standard procedures. Briefly, some 9×10^6 floater cells in PBS were lysed to release gDNA. This material was passed over a QIAamp column that was then washed several times to remove protein and RNA contaminants. Twenty-seven micrograms of genomic DNA were then eluted from the columns with dH2O and treated with RNAse A to eliminate any RNA contamination. This gDNA was then subjected to PCR procedures to amplify the library sequences encoded therein. […]
# [2] = system: ecdysone receptor (pVgRXR); assay: Induction of GFP fluorescence from ecdysone-regulated vector pBIGFII in ECR293 cells; type: cell-based; conditions: 5 μM, cells containing pBIGFII and pVgRXR
# From the text: As an alternative to the constitutive pCLMFG vector, an inducible construct that can be regulated by ecdysone was constructed as follows. The PmII/XhoI fragment from pVT324 was inserted into the MCS of the PIND vector (Invitrogen). This product was then digested with BgIII, blunt-ended and inserted into a pBabe-K-ras vector (pVT313-based) that had been digested with BamHI/XhoI and blunted (Klenow Fragment). The resulting vector was designated pBabe-Forward-1. The XbaI fragment of pVT324 was then inserted into the compatible site of pBabe-Forward-1. The resulting vector was designated pBIGFII. Vector pBIGFII was subsequently transfected into cells (ECR293, Invitrogen) that contain an endogenous copy of the ecdysone receptor (pVgRXR).
# [3] = system: WM35 (melanoma) cells; assay: Caspase-3 fluorescent substrate (Rhodamine 123-YVAD) and PI staining of floater cells, FACS; type: cell-based; conditions: PI-minus floater cells, 15 μg/ml, 18-24 hours after induction
# Procedure: WM35 cells were passed one day prior to induction of apoptosis and incubated for 24 hrs to allow the cells to attach to the substrate. The media was subsequently removed, the remaining adherent cells washed 1× with PBS, and subsequently exposed to Cisplatin (15 μg/ml) in fresh media. Eighteen to twenty-four hours after the induction of apoptosis, the floater cell population was collected, pelleted by centrifugation (400×g), and resuspended at 3×10^6 cells/ml in PBS. Samples were then split into four groups: (1) uninduced minus Rhodamine 123-YVAD (substrate), (2) uninduced plus substrate, (3) induced minus substrate, and (4) induced plus substrate. For samples exposed to Rhodamine 123-YVAD substrate, 50 ul of a pre-warmed (37° C.) cell suspension was combined with 25 ul of a stock substrate solution (Cellprobe). Samples were incubated for 60 minutes at 37° C. and then placed on ice prior to FACS analysis. In addition to caspase-3 staining, a replicate of each sample was stained with propidium iodide to determine the percentage of cells within the population whose membranes had been compromised and the overlap between PI and caspase-3 staining. […] Emission spectra were read at 515-535 nm wavelength using the FL1 (PMT2) 525 nm blue filter.
# [4] = system: HS294T cells; assay: Ethidium homodimer/Syto16 staining for cell death and nuclear morphology; type: cell-based
# Procedure: (§1) Two cell lines, WM35 and HS294T, were plated out (50,000 cells per well, 24 well plate) and allowed to adhere. After 24 hours, the cells were treated for 4 hours with varying concentrations (5-80 μM) of Cisplatin (cis-platinum (II) diammine dichloride), a well-known chemotherapeutic agent that induces apoptosis. […] Adherent cell populations were then lifted from the solid support by trypsinization, centrifuged (400×g), and resuspended in PBS (0.125 ml). To observe the nuclear morphology and percent cell death in the WM35 and HS294T cell lines, cells from both floater and adherent populations were stained concurrently with Syto16 and ethidium homodimer (125 ul of cell suspension+2.5 ul 62.5 uM Syto16+[…] 100 ug/ml ethidium homodimer, 10 minutes at 37° C.). Ethidium homodimer is a membrane impermeant compound that fluoresces in the 617 nm range when it is intercalated with chromosomal DNA. Thus, in a mixed cell population containing both living and dead/dying cells, only those cells whose membranes have been compromised will stain with ethidium homodimer. In contrast, Syto 16 (Molecular Probes) is a membrane permeant dye that fluoresces in the 518 nm range when associated with chromosomal DNA. Together, these two dyes can be used to observe and distinguish the nuclear morphology in a population containing both living and dead/dying cells.
# [5] = system: WM35 cells; assay: as above; type: cell-based
# Procedure: as §1
# [6] = biological target: epitope in the mitochondrial membrane that is exposed only in cells that are undergoing apoptosis (Jurkat cells, permeabilized with digitonin); assay: flow cytometry, digitonin-permeabilized Jurkat cells, 21 hours in anti-FAS antibody (1 ug/ml)
# [7] = biological target: epitope in the mitochondrial membrane that is exposed only in cells that are undergoing apoptosis (Jurkat cells, permeabilized with digitonin); assay: flow cytometry, digitonin-permeabilized Jurkat cells, 0 hours in anti-FAS antibody
# [8] = system: HuVECs 9F0293 cells; assay: Time course of detachment and PI staining of HuVECs (9F0293); type: cell-based, Human; conditions: 2 ug/ml
# Procedure: To determine the time course in which dead and/or dying HuVECs detach from the solid support in response to a cytotoxic agent, 9F0293 cells were plated and subsequently treated with puromycin (2 ug/ml). Both floater and adherent cell populations were then collected at varying times (t=4, 7, 9, 16, 20, and 24 hours) and analyzed to determine (a) the percent PI^+ cells in the floater population and (b) the fraction of cells which became floaters. […] The fraction of floaters that stained with PI (PI^+ population) increased with time.
# [9] = system: HT29 cells; assay: Induction of apoptosis in HT29 cells (detachment, nuclear morphology); type: cell-based; conditions: after 48 hours of treatment
# [10] = system: T47D cells; assay: Kill curve in T47D cells (cell number after 5 days); type: cell-based
# Procedure: Approximately 250,000 cells were seeded into each well of a six well plate. Cells were then grown in media containing camptothecin of varying concentrations (0-10 uM). After 5 days, the number of cells remaining in each of the camptothecin-treated wells was compared with untreated controls. From these experiments, it was determined that camptothecin concentrations ranging from 1-4 nM had no effect on T47D cell number over the course of the 5 days of treatment. […] In order to determine whether this level of treatment is concomitantly increasing the number of floaters in the population, several flasks are seeded with T47D cells and then treated with 1-4 nM concentrations of camptothecin. After a period of three to five days, the media is collected and the number of floater cells are counted and compared to the total number of cells in the flask (floaters+adherents).
# [11] = floater population, 5-80 μM for 4 hours, 18-24 hrs later
molecule,measurement,setting,value
"0328: cytotoxic agent isolated from clone 0328, SEQ ID NO: 23 (XXAVAWLGSTGMTCGAQRLRSLR; X: residue not identified in the source) [compound 0328]",level of floaters relative to background,[1],increased levels of floaters that were statistically significant relative to background
same,floater rate,[1]; individual clone reintroduced into HT29 cells,2%
CC(C)CC[C@@H](O)[C@](C)(O)[C@H]1CC[C@@]2(O)C3=CC(=O)[C@@H]4C[C@@H](O)[C@@H](O)C[C@]4(C)[C@H]3CC[C@]12C [ponesterone A],increase of the level of fluorescence,[2],approximately thirty
"N.N.[Cl-].[Cl-].[Pt+2] [Cisplatin, cis-platinum (II) diammine dichloride]",caspase-3 positive cells,[3],94.6%
same,ethidium homodimer staining of adherent cell population,[4]; adherent population,< 10%
same,cells showing condensed or fragmented nuclei,"[4]; ethidium homodimer stained floater cells, fluorescent microscopy",< 20%
same,floater cells stained with ethidium homodimer,[4]; [11],greater than 50%
same,ethidium homodimer staining of adherent cell population,[5]; adherent population,< 10%
same,ethidium homodimer staining of floaters,[5]; [11],45-50%
same,condensed or fragmented nuclei in floaters,"[5]; floaters, higher concentrations",40-50%
"Apo2.7 monoclonal antibody (Coulter Immunotech), fluorescent R-phycoerythrin-cyanin labeled",percent of population labeled,[6],81%
same,percent of population labeled,[7],4%
COc1ccc(C[C@H](N)C(=O)N[C@H]2[C@@H](O)[C@H](n3cnc4c(N(C)C)ncnc43)O[C@@H]2CO)cc1 [puromycin],time point at which the majority of cells detached,[8],16 h
same,floater cells in the PI+ gate,[8]; by 20 hours,nearly all
CSc1ccc(/C=C2/C(C)=C(CC(=O)O)c3cc(F)ccc32)cc1 [sulindac sulfide],detachment and apoptotic morphology,[9],majority of the cells had detached from the dish and showed typical apoptotic morphology
CC[C@@]1(O)C(=O)OCc2c1cc1n(c2=O)Cc2cc3ccccc3nc2-1 [camptothecin],cell number relative to the untreated control,"[10]; 10 nM, 5 days",roughly one third
same,concentrations with no effect on cell number,[10]; 5 days of treatment,1 to 4 nM
B1,level of floaters relative to background,[1],increased levels of floaters that were statistically significant relative to background
B2,level of floaters relative to background,[1],increased levels of floaters that were statistically significant relative to background
